The target of the series is CD137 (Homo sapiens, UniProt Q07011). Description: CD137 Promega reporter cell activity assay (NF-κB luciferase in Jurkat cells). Particulars: for Average Fold EC50 Improvement relative to CD137L: Average EC50 for CD137L = 14.2 nM; for Average Relative Fold Induction relative to CD137L: Average fold induction for CD137L = 4.0.
CD137, sequence (Q07011 24-255): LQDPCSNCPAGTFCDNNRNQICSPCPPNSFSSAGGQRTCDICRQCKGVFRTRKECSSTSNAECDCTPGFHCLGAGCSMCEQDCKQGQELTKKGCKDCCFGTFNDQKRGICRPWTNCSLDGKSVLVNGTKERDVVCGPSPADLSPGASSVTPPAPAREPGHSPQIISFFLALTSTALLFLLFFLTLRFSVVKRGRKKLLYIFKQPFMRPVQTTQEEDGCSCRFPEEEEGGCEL

Take `CCCC[C@@H]1NC(=O)[C@H](Cc2ccc(O)cc2)NC(=O)[C@@H]2CCCN2C(=O)[C@H](CC(=O)O)NC(=O)[C@H](C)NC(=O)[C@H](Cc2ccccc2)NC(=O)[C@@H]2CSCCC(=O)N3CN(CN(C3)C(=O)CCSC[C@@H](C(=O)N[C@@H](C)C(N)=O)NC1=O)C(=O)CCSC[C@H](NC(=O)[C@H](C)NC(C)=O)C(=O)N[C@@H]([C@@H](C)CC)C(=O)N[C@@H](CCC(=O)O)C(=O)N[C@@H](CCC(=O)O)C(=O)NCC(=O)N[C@@H](CCCCNC(=O)CCc1cn(CCOCCOCCOCCOCCOCCOCCOCCOCCOCCOCCNC(=O)CCOCC(COCCC(=O)NCCOCCOCCOCCOCCOCCOCCOCCOCCOCCOCCn3cc(CCC(=O)NCCCC[C@@H]4NC(=O)CNC(=O)[C@H](CCC(=O)O)NC(=O)[C@H](CCC(=O)O)NC(=O)[C@H]([C@@H](C)CC)NC(=O)[C@@H](NC(=O)[C@H](C)NC(C)=O)CSCCC(=O)N5CN6CN(C5)C(=O)CCSC[C@H](NC(=O)[C@H](Cc5ccc(O)cc5)NC4=O)C(=O)N[C@@H](Cc4ccccc4)C(=O)N[C@@H](C)C(=O)N[C@@H](CC(=O)O)C(=O)N4CCC[C@H]4C(=O)N[C@@H](Cc4ccc(O)cc4)C(=O)N[C@@H](CCCC)C(=O)N[C@H](C(=O)N[C@@H](C)C(N)=O)CSCCC6=O)nn3)(COCCC(=O)NCCOCCOCCOCCOCCOCCOCCOCCOCCOCCOCCn3cc(CCC(=O)NCCCC[C@@H]4NC(=O)CNC(=O)[C@H](CCC(=O)O)NC(=O)[C@H](CCC(=O)O)NC(=O)[C@H]([C@@H](C)CC)NC(=O)[C@@H](NC(=O)[C@H](C)NC(C)=O)CSCCC(=O)N5CN6CN(C5)C(=O)CCSC[C@H](NC(=O)[C@H](Cc5ccc(O)cc5)NC4=O)C(=O)N[C@@H](Cc4ccccc4)C(=O)N[C@@H](C)C(=O)N[C@@H](CC(=O)O)C(=O)N4CCC[C@H]4C(=O)N[C@@H](Cc4ccc(O)cc4)C(=O)N[C@@H](CCCC)C(=O)N[C@H](C(=O)N[C@@H](C)C(N)=O)CSCCC6=O)nn3)COCCC(=O)NCCOCCOCCOCCOCCOCCOCCOCCOCCOCCOCCn3cc(CCC(=O)NCCCC[C@@H]4NC(=O)CNC(=O)[C@H](CCC(=O)O)NC(=O)[C@H](CCC(=O)O)NC(=O)[C@H]([C@@H](C)CC)NC(=O)[C@@H](NC(=O)[C@H](C)NC(C)=O)CSCCC(=O)N5CN6CN(C5)C(=O)CCSC[C@H](NC(=O)[C@H](Cc5ccc(O)cc5)NC4=O)C(=O)N[C@@H](Cc4ccccc4)C(=O)N[C@@H](C)C(=O)N[C@@H](CC(=O)O)C(=O)N4CCC[C@H]4C(=O)N[C@@H](Cc4ccc(O)cc4)C(=O)N[C@@H](CCCC)C(=O)N[C@H](C(=O)N[C@@H](C)C(N)=O)CSCCC6=O)nn3)nn1)C(=O)N[C@@H](Cc1ccc(O)cc1)C(=O)N2` [BCY7845]: the “Average Fold EC50 Improvement relative to CD137L” value is reported as 17.78 and the “Average Relative Fold Induction relative to CD137L” value is listed as 1.54. Under “FIGS. 1 to 3 and 15”, the “CD137 agonism / activation in reporter cells (in words)” value is “high levels of CD137 agonism”. For the same compound, the Average fold induction result (reference substance of Table 4A / 4B) was “**Average fold induction for BCY7845 = 6.3”.

On to `CCCC[C@@H]1NC(=O)[C@H](Cc2ccc(O)cc2)NC(=O)[C@@H]2CCCN2C(=O)[C@H](CC(=O)O)NC(=O)[C@H](C)NC(=O)[C@H](Cc2ccccc2)NC(=O)[C@@H]2CSCCC(=O)N3CN(CN(C3)C(=O)CCSC[C@@H](C(=O)N[C@@H](C)C(N)=O)NC1=O)C(=O)CCSC[C@H](NC(=O)[C@H](C)NC(C)=O)C(=O)N[C@@H]([C@@H](C)CC)C(=O)N[C@@H](CCC(=O)O)C(=O)N[C@@H](CCC(=O)O)C(=O)N[C@H](CCCCNC(=O)OCC1C3CCc4nnn(CCOCCOCCOCCOCCOCCOCCOCCOCCOCCOCCNC(=O)CCOCCN(CCOCCC(=O)NCCOCCOCCOCCOCCOCCOCCOCCOCCOCCOCCn5nnc6c5CCC5C(CC6)C5COC(=O)NCCCC[C@H]5NC(=O)[C@H](CCC(=O)O)NC(=O)[C@H](CCC(=O)O)NC(=O)[C@H]([C@@H](C)CC)NC(=O)[C@@H](NC(=O)[C@H](C)NC(C)=O)CSCCC(=O)N6CN7CN(C6)C(=O)CCSC[C@H](NC(=O)[C@H](Cc6ccc(O)cc6)NC(=O)[C@H](CCC(N)=O)NC5=O)C(=O)N[C@@H](Cc5ccccc5)C(=O)N[C@@H](C)C(=O)N[C@@H](CC(=O)O)C(=O)N5CCC[C@H]5C(=O)N[C@@H](Cc5ccc(O)cc5)C(=O)N[C@@H](CCCC)C(=O)N[C@H](C(=O)N[C@@H](C)C(N)=O)CSCCC7=O)CCOCCC(=O)NCCOCCOCCOCCOCCOCCOCCOCCOCCOCCOCCn5nnc6c5CCC5C(CC6)C5COC(=O)NCCCC[C@H]5NC(=O)[C@H](CCC(=O)O)NC(=O)[C@H](CCC(=O)O)NC(=O)[C@H]([C@@H](C)CC)NC(=O)[C@@H](NC(=O)[C@H](C)NC(C)=O)CSCCC(=O)N6CN7CN(C6)C(=O)CCSC[C@H](NC(=O)[C@H](Cc6ccc(O)cc6)NC(=O)[C@H](CCC(N)=O)NC5=O)C(=O)N[C@@H](Cc5ccccc5)C(=O)N[C@@H](C)C(=O)N[C@@H](CC(=O)O)C(=O)N5CCC[C@H]5C(=O)N[C@@H](Cc5ccc(O)cc5)C(=O)N[C@@H](CCCC)C(=O)N[C@H](C(=O)N[C@@H](C)C(N)=O)CSCCC7=O)c4CCC31)C(=O)N[C@@H](CCC(N)=O)C(=O)N[C@@H](Cc1ccc(O)cc1)C(=O)N2` (some centres unmarked) [BCY8102], for which the “Average Fold EC50 Improvement relative to CD137L” value was 41.27 and the “Average Relative Fold Induction relative to CD137L” value was found to be 0.91.

For `CCCC[C@@H]1NC(=O)[C@H](Cc2ccc(O)cc2)NC(=O)[C@@H]2CCCN2C(=O)[C@H](CC(=O)O)NC(=O)[C@H](C)NC(=O)[C@H](Cc2ccccc2)NC(=O)[C@@H]2CSCCC(=O)N3CN(CN(C3)C(=O)CCSC[C@@H](C(=O)N[C@@H](C)C(N)=O)NC1=O)C(=O)CCSC[C@H](NC(=O)[C@H](C)NC(C)=O)C(=O)N[C@@H]([C@@H](C)CC)C(=O)N[C@@H](CCC(=O)O)C(=O)N[C@@H](CCC(=O)O)C(=O)N[C@H](CCCCNC(=O)OCC1C3CCc4nnn(CCOCCOCCOCCOCCOCCOCCOCCOCCOCCOCCOCCOCCOCCOCCOCCOCCOCCOCCOCCOCCOCCOCCOCCNC(=O)CCOCCN(CCOCCC(=O)NCCOCCOCCOCCOCCOCCOCCOCCOCCOCCOCCOCCOCCOCCOCCOCCOCCOCCOCCOCCOCCOCCOCCOCCn5nnc6c5CCC5C(CC6)C5COC(=O)NCCCC[C@H]5NC(=O)[C@H](CCC(=O)O)NC(=O)[C@H](CCC(=O)O)NC(=O)[C@H]([C@@H](C)CC)NC(=O)[C@@H](NC(=O)[C@H](C)NC(C)=O)CSCCC(=O)N6CN7CN(C6)C(=O)CCSC[C@H](NC(=O)[C@H](Cc6ccc(O)cc6)NC(=O)[C@H](CCC(N)=O)NC5=O)C(=O)N[C@@H](Cc5ccccc5)C(=O)N[C@@H](C)C(=O)N[C@@H](CC(=O)O)C(=O)N5CCC[C@H]5C(=O)N[C@@H](Cc5ccc(O)cc5)C(=O)N[C@@H](CCCC)C(=O)N[C@H](C(=O)N[C@@H](C)C(N)=O)CSCCC7=O)CCOCCC(=O)NCCOCCOCCOCCOCCOCCOCCOCCOCCOCCOCCOCCOCCOCCOCCOCCOCCOCCOCCOCCOCCOCCOCCOCCn5nnc6c5CCC5C(CC6)C5COC(=O)NCCCC[C@H]5NC(=O)[C@H](CCC(=O)O)NC(=O)[C@H](CCC(=O)O)NC(=O)[C@H]([C@@H](C)CC)NC(=O)[C@@H](NC(=O)[C@H](C)NC(C)=O)CSCCC(=O)N6CN7CN(C6)C(=O)CCSC[C@H](NC(=O)[C@H](Cc6ccc(O)cc6)NC(=O)[C@H](CCC(N)=O)NC5=O)C(=O)N[C@@H](Cc5ccccc5)C(=O)N[C@@H](C)C(=O)N[C@@H](CC(=O)O)C(=O)N5CCC[C@H]5C(=O)N[C@@H](Cc5ccc(O)cc5)C(=O)N[C@@H](CCCC)C(=O)N[C@H](C(=O)N[C@@H](C)C(N)=O)CSCCC7=O)c4CCC31)C(=O)N[C@@H](CCC(N)=O)C(=O)N[C@@H](Cc1ccc(O)cc1)C(=O)N2` (some centres unmarked) [BCY8103], the “Average Fold EC50 Improvement relative to CD137L” value is 188.34 and the “Average Relative Fold Induction relative to CD137L” value came to 0.91.

Source of the values: patent US11542304B2, “Multimeric bicyclic peptide ligands” (BicycleTx Limited, priority 2018, dated 2023).
